Structures are written as SMILES. Entries after “also recorded” stand apart in the source; their conditions may differ. Where two headings read alike, the source gives them in different places.

The term Ki denotes a measure of affinity in units of concentration, obtained from inhibition or displacement.

The test system of one test is monoamine transporter. Description: Monoamine transporter uptake activity. Format: cell-based. The settings on record: FIG. 23.
Test [1] deals with T1, D3 dopamine receptor (Homo sapiens (Human), UniProt P35462). As to the kind of experiment: D3 receptor tolerance and SRT: GIRK response to repeated agonist application in AtT-20 cells. It is filed as cell-based. Particulars: 1000 nM PBZI applied simultaneously with 100 nM dopamine.
Target sequence in this assay (P35462 other isoform, or with tags, fused parts or gaps): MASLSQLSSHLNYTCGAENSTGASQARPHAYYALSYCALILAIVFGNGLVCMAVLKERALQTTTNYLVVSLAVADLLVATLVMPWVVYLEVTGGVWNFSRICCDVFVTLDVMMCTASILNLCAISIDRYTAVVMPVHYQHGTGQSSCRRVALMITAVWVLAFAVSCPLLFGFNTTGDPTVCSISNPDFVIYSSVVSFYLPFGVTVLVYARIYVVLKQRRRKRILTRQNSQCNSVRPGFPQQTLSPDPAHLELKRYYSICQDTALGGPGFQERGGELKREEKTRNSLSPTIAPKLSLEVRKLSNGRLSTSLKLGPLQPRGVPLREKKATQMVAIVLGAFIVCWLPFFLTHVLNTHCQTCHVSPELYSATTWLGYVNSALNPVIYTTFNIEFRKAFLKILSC
Test [2] deals with T1, D3 dopamine receptor. The settings on record: cited from earlier work.
Target sequence in this assay (P35462 whole entry): as the sequence (P35462 other isoform, or with tags, fused parts or gaps) above, with S9G counted along it
A further test has as its target D2S (Homo sapiens (Human), UniProt P14416). Particulars: Scheideler et al., 1997; cited from earlier work.
The next test concerns the target D4.2. Particulars: Scheideler et al., 1997; cited from earlier work.
Another test concerns D1-like receptors. Particulars: cited from earlier work.
A further test has as its system c-fos expression. The settings on record: in vivo; cited from earlier work.
For a further test, the system named is Balb/c mice. As to the kind of experiment: Locomotor activity (open field, TruScan) in Balb/c mice.

Sequence of D2S (P14416 other isoform, or with tags, fused parts or gaps): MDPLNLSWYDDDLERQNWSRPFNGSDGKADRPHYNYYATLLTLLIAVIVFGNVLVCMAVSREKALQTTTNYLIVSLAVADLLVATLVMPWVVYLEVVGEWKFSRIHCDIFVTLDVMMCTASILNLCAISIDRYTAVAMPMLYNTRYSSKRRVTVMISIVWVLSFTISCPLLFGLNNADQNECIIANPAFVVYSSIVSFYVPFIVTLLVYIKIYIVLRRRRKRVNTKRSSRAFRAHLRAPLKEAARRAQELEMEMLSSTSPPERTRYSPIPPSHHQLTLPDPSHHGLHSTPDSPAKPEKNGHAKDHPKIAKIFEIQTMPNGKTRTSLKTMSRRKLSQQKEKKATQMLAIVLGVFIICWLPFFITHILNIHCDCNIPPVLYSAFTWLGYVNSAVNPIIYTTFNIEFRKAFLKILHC
Description for Balb/c mice: Therefore, three different doses of the lead compound are administered and their effects on locomotor activity are determined. The dosage is determined based on the functional EC50 values and binding affinity of the lead compound from the cell-based assays described above. The compound is administered to Balb/c mice and locomotor activity is monitored using the TruScan Automated Behavioral Monitoring system (Coulborn Instruments).
A total of 12 young adult, male Balb/c mice were obtained form Charles River, Inc. (Wilmington, Mass.), and housed in groups of four in standard cages. The animals were maintained on a 12 hour light/12 hour dark cycle and permitted ad lib access to food and water. Experiments were conducted during the animal's light phase. […] For PD128907, separate groups of Balb/c mice received subcutaneous injections of saline (n=4) or 0.05 or 0.4 mg/kg PD128907 (n=4, for each). Locomotion (‘distance traveled’) scores of drug-injected animals were collapsed across 10-min intervals and for comparison purposes were normalized to saline injected animals (FIG. 12A). The experiment was conducted on three separate occasions.

As to `CC(N)CCc1ccccc1Cl` (stereo not drawn) [ES609], the “monoamine transporter uptake activity” value with monoamine transporter is “inhibits monoamine transporter uptake activity”.
For the molecule `CCCN1CC[C@@H]2c3cc(O)ccc3CC[C@@H]21` [PBZI, (3aS,9bR)-3-propyl-1,2,3a,4,5,9b-hexahydrobenzo[e]indol-8-ol], at D3 dopamine receptor [1], the “competition with dopamine to block development of tolerance and SRT” value is “able to compete effectively with dopamine; also recorded: blocked the development of tolerance and SRT”. Moreover, the Ki on D3 dopamine receptor [2] (D3, Scheideler et al., 1997, read-out: Ki) was 27 nM; on D3 dopamine receptor [2] (source not stated, read-out: D3 dopamine receptor binding affinity Ki) it was 22 nM; at D2S, 1800 nM; at D4.2, 280 nM. In addition, the “Binding at D1-like receptors and a panel of other neurotransmitter receptors, ion channels and transporters” value in the test with D1-like receptors is listed as “negligible”. Also, the “c-fos expression in medial prefrontal cortex and shell region of nucleus accumbens” value with c-fos expression is recorded as “specific increases in c-fos expression”. The effect on locomotion entry in the test with Balb/c mice (1 mg/kg sc) is “no significant effect”. For the same molecule, the reduction of locomotion result in the test on Balb/c mice (10 mg/kg sc, within 20-min) is “approximately 90%”. In addition, the “duration of hypoactivity post-injection” value in the test with Balb/c mice (PBZI 10 mg/kg sc, PD128907 0.4 mg/kg sc) is recorded as 40 min. The locomotor response result in the test on Balb/c mice (sc, PBZI 10 mg/kg, PD128907 0.05-0.4 mg/kg, normalized to saline) is “only elicit hypoactivity; also recorded: monophasic hypoactive locomotor response; also recorded: dose-dependent and monophasic inhibition of locomotion”.

(Values after patent publication US9289400B2, “D3 dopamine receptor agonists to treat dyskinesia in parkinson's disease” (priority 2010, dated 2016).)
